Where two headings read alike, the source gives them in different places.
Assays:
[1] = target: T1, Autotaxin (Homo sapiens, UniProt Q13822); experiment: LPA formation in pooled human plasma (ex vivo autotaxin inhibition); format: biochemical; conditions: 2 hours incubation
T1 construct: from tissue; host or cells: pooled human plasma
How it was run: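 Ex vivo: LPA 18:2 and 20:4 levels in compound-treated versus untreated pooled human plasma after 2 h incubation, measured by butanol extraction and negative-mode MRM LC/MS/MS against calibration standards. IC50 from non-linear fit of inhibition versus concentration.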

[2] = Pharmacokinetics after a single oral dose in SD rats; format: in vivo; conditions: Sprague-Dawley, rat, plasma, single oral dose in 0.5% methylcellulose; for half-life: read-out: T½ (converted)
Excerpt: (§1) The pharmacokinetics and pharmacodynamics of test compounds after a single oral dose were investigated in SD rats, Beagle dog and Cynomolgus monkey. SD Rats (200-250 g) were purchased from Beijing Vital River Laboratory Animal Technology Co., Ltd. Male Beagle Dog, 6-9 kg, were purchased from Beijing Mashall. Male Cynomolgus monkeys, 3-5 kg, were purchased from Suzhou Xishan Zhongke Drugs Research and Development Co., Ltd. Following arrival, the animals were acclimated for 7 days in individual cages maintained at ambient temperature, 34 to 68% relative humidity, and 12-h light/dark cycles. Just prior to dose administration the rats were fasted overnight with free access to water. Animals were given 10 mL/kg of formulated compound in 0.5% methylcellulose (MC) by oral gavage, and the animals were fed four hours after dosing. The animals were manually restrained at the designated time points (pre-dose, 0.5, 1, 3, 6, 9, 12, and 24 h post-dose) to collect blood. Approximately 120 μL of blood was collected via orbital sinus into K2EDTA tubes. The blood samples were centrifuged at 5000 rpm for 10 min at 4° C. to obtain plasma samples.
To determine the compound concentration in the plasma samples, a 10× calibration standard of compound were prepared by serial dilution in DMSO: 20000, 10000, 5000, 2000, 1000, 500, 200, 100, 50, 20, and 10 ng/mL. 3 μL of calibration standard solution was added into 27.0 μL of blank plasma in 1.5-mL microcentrifuge tubes to generate 1× calibration standards. The 30.0 μL of standards or study plasma was mixed with 200 μL of acetonitrile (containing 5 ng/mL verapamil for internal control) in a 1.5-mL microcentrifuge tube. After vertexing for 1 minute and centrifuging at 10000 rpm for 10 min, 180 μL of supernatant was transferred into a 96-well plate and the compound concentration in the plasma was quantitated using LC/MS/MS together with standards. Briefly, 1 μL of the solutions were injected for LC-MS/MS analysis using an Agilent Zorbax C18 column (50×2.1 mm, 3.5 μm) with mobile phase A [5 mM NH4Ac (0.1% FA)] and phase B [Methanol (0.1% FA)]. Mass spectrometer parameters optimization for compound was performed by infusing standard diluted at 1 μg/mL in water/methanol (1/1, v/v) directly in the ionization source at a flow of 10 μL/min. Quantitative data were acquired in multiple reaction monitoring (MRM) positive APCI mode.

[3] = target: T2, Autotaxin (Rattus norvegicus, UniProt Q64610); experiment: Pharmacodynamics: LPA 18:2 inhibition in plasma of SD rats after oral dose; conditions: single oral dose, LPA18:2 inhibition vs plasma concentration of compound, read-out: In vivo rat IC50 (LPA 18:2) (converted)
T2 construct: from tissue; host or cells: SD rats in vivo; plasma sampled after a single oral dose
Excerpt: as §1
Autotaxin is a secreted phosphodiesterase that converts lysophosphatidylcholine (LPC) into lysophosphatidic acid (LPA), and LPA 18:2 formation was used to evaluate the efficacy of autotaxin inhibitors. Therefore, the LPA 18:2 formation in response to drug administration was analyzed in each time point to assess the pharmacodynamics of test compounds. To determine the LPA18:2 concentration in study plasma, a 10× calibration standard of LPA 18:2 were prepared by serial dilution in butyl alcohol: 20000, 10000, 5000, 2000, 1000, 500, 200, 100, 50, 20, and 10 ng/mL. 3 μL of calibration standard solution was added into 27.0 μL of blank plasma in 1.5-mL microcentrifuge tubes to generate 1× calibration standards. The 30.0 μL of standards or study plasma was added into 1.5-mL microcentrifuge tubes. 200 μL of butyl alcohol (containing 25.0 ng/mL LPA17:0 for internal control) was added into each 1.5-mL microcentrifuge tube containing study plasma or calibration standards. After vortexing for 1 minute and centrifuging at 10000 rpm for 10 min, 180 μL of supernatant was transferred into a 96-well plate and the LPA18:2 concentration in the plasma was quantitated using LC/MS/MS together with standards. Briefly, 8 μL of the solutions were injected for LC-MS/MS analysis using an ACQUITY UPLC BEH C18 column (2.1×50 mm, 1.7 μm) with mobile phase A [20 mM NH4OAC in water (0.1% FA)] and phase B [5 mM NH4OAC in water/0.2% FA in ACN=5:95]. Mass spectrometer parameters optimization for LPA18:2 were performed by infusing standard diluted at 1 μg/mL in butyl Alcohol directly in the ionization source, at a flow of 10 μL/min. Deprotonated molecular ion at m/z 433.2 ([M−H]−) for LPA18:2, and abundant product ion at m/z 152.8 for LPA18:2 were obtained. Quantitative data were acquired in multiple reaction monitoring (MRM) negative electrospray ionization mode
The percentage of LPA18:2 inhibition was plotted against the corresponding concentration of compound and the IC50 was calculated through non-linear regression fitting.

[4] = LPA 18:2 by LC/MS/MS, read-out: LPA formation (18:2) (IC50)
[5] = LPA 20:4 by LC/MS/MS, read-out: LPA formation (20:4) (IC50)

Structure (SMILES)	IC50 [1, 4]	IC50 [1, 5]	AUC [2]	Cmax [2]	half-life [2]	IC50 [3]
CCc1nn2cc(F)c(N3CC4(CN(C(=O)C5(O)CCOCC5)C4)C3)cc2c1N(C)c1nc(-c2ccc(F)cc2)c(C#N)s1 [Example 112, 2-[[2-ethyl-6-fluoro-5-[2-(4-hydroxytetrahydropyran-4-carbonyl)-2,6-diazaspiro[3.3]heptan-6-yl]pyrazolo[1,5-a]pyridin-3-yl]-methyl-amino]-4-(4-fluorophenyl)thiazole-5-carbonitrile]	≤ 100 nM	≤ 100 nM	4750 ± 1430 ng·h/mL	460 ± 178 ng/mL	3.77 ± 0.34 h	97.5 nM
CCc1nn2cc(C)c(N3CC4(CN(C(=O)[C@H]5CCOC5)C4)C3)cc2c1N(C)c1nc(-c2ccc(F)cc2)c(C#N)s1 [Example 97, (S)-2-((2-ethyl-6-methyl-5-(6-(tetrahydrofuran-3-carbonyl)-2,6-diazaspiro[3.3]heptan-2-yl)pyrazolo[1,5-a]pyridin-3-yl)(methyl)amino)-4-(4-fluorophenyl)thiazole-5-carbonitrile]	≤ 100 nM	≤ 100 nM	4690 ± 526 ng·h/mL	336 ± 33.8 ng/mL	5.41 ± 1.7 h	20 nM
CN(c1nc(-c2ccc(F)cc2)c(C#N)s1)c1c(C2CC2)nn2cc(F)c(N3CC4(CN(C(=O)[C@H]5CCOC5)C4)C3)cc12 [Compound 114, (S)-2-((2-cyclopropyl-6-fluoro-5-(6-(tetrahydrofuran-3-carbonyl)-2,6-diazaspiro[3.3]heptan-2-yl)pyrazolo[1,5-a]pyridin-3-yl)(methyl)amino)-4-(4-fluorophenyl)thiazole-5-carbonitrile]	≤ 100 nM	≤ 100 nM	1460 ± 1120 ng·h/mL	140 ± 102 ng/mL	3.72 ± 2.5 h	16 nM
CCn1nc2nc(C)c(N3CC4(CN(C(=O)C5CCOCC5)C4)C3)cc2c1N(C)c1nc(-c2ccc(F)cc2)c(C#N)s1 [Compound 122, 2-((2-ethyl-6-methyl-5-(6-(tetrahydro-2H-pyran-4-carbonyl)-2,6-diazaspiro[3.3]heptan-2-yl)-2H-pyrazolo[3,4-b]pyridin-3-yl)(methyl)amino)-4-(4-fluorophenyl)thiazole-5-carbonitrile]	≤ 100 nM	≤ 100 nM	1090 ± 544 ng·h/mL	403 ± 341 ng/mL	2.99 ± 3 h	26.8 nM
CCc1nn2cc(F)c(N3CC4(CN(C(=O)C5CCN(C)CC5)C4)C3)cc2c1N(C)c1nc(-c2ccc(F)cc2)c(C#N)s1 [Example 106, 2-((2-ethyl-6-fluoro-5-(6-(1-methylpiperidine-4-carbonyl)-2,6-diazaspiro[3.3]heptan-2-yl)pyrazolo[1,5-a]pyridin-3-yl)(methyl)amino)-4-(4-fluorophenyl)thiazole-5-carbonitrile]	≤ 100 nM	≤ 100 nM	350 ± 156 ng·h/mL	29.2 ± 15 ng/mL	7.21 ± 0.98 h	19.2 nM
CCn1nc2ncc(N3CC4(CN(C(=O)[C@H]5CCOC5)C4)C3)cc2c1N(C)c1nc(-c2ccc(F)cc2)c(C#N)s1 [Compound 117]	≤ 100 nM	≤ 100 nM	2210 ± 704 ng·h/mL	584 ± 265 ng/mL	4.36 ± 1.3 h	176 nM
CCn1nc2nc(C)c(N3CCN(CC(=O)N4CC(O)C4)CC3)cc2c1N(C)c1nc(-c2ccc(F)cc2)c(C#N)s1 [Compound 119, 2-((2-ethyl-5-(4-(2-(3-hydroxyazetidin-1-yl)-2-oxoethyl)piperazin-1-yl)-6-methyl-2H-pyrazolo[3,4-b]pyridin-3-yl)(methyl)amino)-4-(4-fluorophenyl)thiazole-5-carbonitrile]	≤ 100 nM	≤ 100 nM	222 ± 160 ng·h/mL	96.2 ± 73 ng/mL	1.64 ± 1.27 h	18.6 nM
CCc1nn2cc(F)c(N3CCN(CC(=O)N4CC[C@@H](O)C4)CC3)cc2c1N(C)c1nc(-c2ccc(F)cc2)c(C#N)s1 [Example 109, (R)-2-((2-ethyl-6-fluoro-5-(4-(2-(3-hydroxypyrrolidin-1-yl)-2-oxoethyl)piperazin-1-yl)pyrazolo[1,5-a]pyridin-3-yl)(methyl)amino)-4-(4-fluorophenyl)thiazole-5-carbonitrile]	≤ 100 nM	≤ 100 nM	269 ± 85 ng·h/mL	67.1 ± 24 ng/mL	3.46 ± 0.21 h	10 nM
CN(c1nc(-c2ccc(F)cc2)c(C#N)s1)c1c(C2CC2)nn2cc(F)c(N3CCN(CC(=O)N4CC(O)C4)CC3)cc12 [Compound 113, 2-((2-cyclopropyl-6-fluoro-5-(4-(2-(3-hydroxyazetidin-1-yl)-2-oxoethyl)piperazin-1-yl)pyrazolo[1,5-a]pyridin-3-yl)(methyl)amino)-4-(4-fluorophenyl)thiazole-5-carbonitrile]	≤ 100 nM	≤ 100 nM	963 ± 501 ng·h/mL	177 ± 99 ng/mL	2.92 ± 0.31 h	14.8 nM
[2H]c1c(F)c(N2CCN(CC(=O)N3CC(O)C3)CC2)cc2c(N(C)c3nc(-c4ccc(F)cc4)c(C#N)s3)c(CC)nn12 [Example 103, 2-((2-ethyl-6-fluoro-5-(4-(2-(3-hydroxyazetidin-1-yl)-2-oxoethyl)piperazin-1-yl)pyrazolo[1,5-a]pyridin-3-yl-7-d)(methyl)amino)-4-(4-fluorophenyl)thiazole-5-carbonitrile]	≤ 100 nM	≤ 100 nM	1080 ± 313 ng·h/mL	209 ± 58 ng/mL	4.32 ± 1.5 h	48.6 nM

From patent US10711000B2 (Fronthera U.S. Pharmaceuticals LLC, priority 2018, dated 2020)
